From US20070191402A1, “Method of searching substrate having antidiabetic activity” (KYOWA HAKKO KOGYO CO., LTD., priority 2002, published 2007)

How the values were obtained:
[1] = tested on: MIN6 cell; assay: Insulin secretion test using MIN6 cell; format: cell-based, murine; conditions: MIN6 cell; glucose 14.5 mmol/l or 8.4 mmol/l
Experimental: Culturing MIN6 cell and testing insulin secretion using MIN6 cell were carried out according to the method described in Diabetorogia, 36, 1139-1145 (1993).
In other words, the influence of a compound on the insulin secretion activity in the presence of 14.5 mmol/l glucose was assessed by assaying the amount of insulin in the cell culture supernatant collected as follows.
The MIN6 cell cultured in a 24-well plate was washed twice with 1 ml of buffer A [119 mmol/l NaCl, 4.74 mmol/l KCl, 2.54 mmol/l CaCl2, 1.19 mmol/l MgSO4, 1.19 mmol/l KH2PO4, 10 mmol/l 2-[4-(2-hydroxylethyl)-1-piperadinyl]ethanesulfonic acid, 0.1% BSA, pH 7.3] containing 2 mmol/l glucose. Subsequently, the resulting cell was incubated in 1 ml of the buffer A containing 2 mmol/l glucose at 37° C. for 45 minutes. The culture supernatant was exchanged with the buffer A (1 ml) containing test compounds of various concentrations and 8.4 mmol/l glucose and incubated at 37° C. for 45 minutes to collect the culture supernatant.
Antibody-reactive insulin secreted in the culture supernatant was assayed by radioimmunoassay [Methods in Investigative and Diagnostic Endocrinology, Vol. 2A, 2B, North-Holland Publishing Co., Amsterdam (1973)] after the culture supernatant was diluted with phosphate buffer containing 1% BSA, 0.1% Tween 20, 0.12% EDTA 2Na, and 0.1% sodium azide. A standard curve was prepared by using human insulin as the standard substance, and individual insulin values were calculated on the basis of the curve.

[2] = tested on: pancreatic β cell (MIN6 cell); assay: Inhibition of binding of [3H]-labeled Compound 16 to pancreatic β cell; parameters: species or system murine; conditions: test compound 1 μmol/l; 10 nmol/l [3H]-labeled Compound 16; MIN6 cell, 4° C.
Experimental: MIN6 cell cultured to almost confluence in a 24-well plate for cell culture (manufactured by Corning) was washed twice with KRH buffer (119 mmol/l NaCl, 4.74 mmol/KCl, 2.54 mmol/l calcium chloride (CaCl2), 1.19 mmol/l magnesium sulfate (MgSO4), 1.19 mmol/l potassium dihydrogen phosphate (KH2PO4), 10 mmol/l HEPES, 2 mmol/l glucose, 0.1 w/v % bovine serum albumin (BSA), pH 7.3). Subsequently, the KRH buffer was added at 1 ml per well, for preincubation at 37° C. for 45 minutes. After preincubation, the supernatant was discarded, and 0.15 ml of the KRH buffer, […] at 4° C. for one hour or longer until the reaction reached equilibrium. Subsequently, the cell was washed twice using the KRH buffer. The KRH buffer was added at 2 ml per well, which was then left to stand at room temperature for 20 minutes. The cell was again washed twice by using the KRH buffer. The radioactivity remaining in each well was counted with a liquid scintillation counter to determine the binding amount.
The difference between the binding amount of the [^3H]-labeled Compound 16 (total binding amount) under conditions with no addition of any test compound and the binding amount of the [^3H]-labeled Compound 16 (non-specific binding amount) under conditions in the presence of the Compound 16 at 10 μmol/l was defined as specific binding amount.
According to the method described in Example 5, a substance having anti-diabetic activity was screened for, using the inhibitory activity of the binding between pancreatic β cells and [^3H]-labeled Compound 16. A tested substance was dissolved in dimethylsulfoxide and then added to give a final concentration of 1 μmol/l. The radioactivity with addition of the unlabeled Compound 16 was defined as the non-specific binding amount and the radioactivity without addition of the unlabeled Compound 16 was defined as the total binding amount, and then the individual specific binding amounts were calculated by the method described in Example 6. Using the following formula, the binding inhibition ratio was determined. [formula]

CCCN1C(=O)N2C[C@@H](Cc3ccccc3)N=C2c2[nH]c(C3CCCC3)nc21 [compound 16]
Insulin secretory activity (%) [1]: 83.2% | Binding inhibitory activity (%) [2]: 100.0%
